Reference: article PMC3579855, “Characterization of DNA Topoisomerase-1 in Spodoptera exigua for Toxicity Evaluation of Camptothecin and Hydoxy-Camptothecin” (PLoS ONE, 2013)

Target: T1, DNA topoisomerase 1 (Topo1) (Spodoptera exigua, UniProt G1FWE7)
T1 construct: Topo70, N-terminally truncated, residues 337–930, GST fusion expressed in E. coli BL21 (DE3)
T1 sequence (G1FWE7 337-930): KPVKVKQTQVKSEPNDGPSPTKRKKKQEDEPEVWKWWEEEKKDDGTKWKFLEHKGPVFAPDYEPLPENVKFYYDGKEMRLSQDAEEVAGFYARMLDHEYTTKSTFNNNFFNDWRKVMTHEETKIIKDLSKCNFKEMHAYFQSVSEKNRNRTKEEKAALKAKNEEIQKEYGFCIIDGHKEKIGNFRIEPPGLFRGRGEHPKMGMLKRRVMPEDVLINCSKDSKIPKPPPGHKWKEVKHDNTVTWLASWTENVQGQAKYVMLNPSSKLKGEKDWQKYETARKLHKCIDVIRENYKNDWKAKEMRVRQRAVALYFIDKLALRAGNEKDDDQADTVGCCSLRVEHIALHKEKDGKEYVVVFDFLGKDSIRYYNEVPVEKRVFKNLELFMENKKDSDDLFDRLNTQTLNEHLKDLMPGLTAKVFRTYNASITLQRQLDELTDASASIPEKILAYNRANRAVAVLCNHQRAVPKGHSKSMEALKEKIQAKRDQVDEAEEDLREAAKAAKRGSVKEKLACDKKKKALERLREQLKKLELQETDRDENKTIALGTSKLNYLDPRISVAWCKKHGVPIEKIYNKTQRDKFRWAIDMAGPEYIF
Experiment: pBR322 DNA relaxation assay with purified recombinant Topo1, agarose gel densitometry
Type: biochemical

SMILES	EC50 [µM]
CC[C@@]1(O)C(=O)OCc2c1cc1n(c2=O)Cc2cc3ccccc3nc2-1 [CPT, Camptothecin]	4.42
CC[C@@]1(O)C(=O)OCc2c1cc1n(c2=O)Cc2cc3cc(O)ccc3nc2-1 [HCPT, hydroxy-camptothecin]	15.2
